Experimental data from patent US6953577B2, “Human methionine aminopeptidase type 3” (Pharmacia Corporation, priority 1999, dated 2005).

Experiments:
[1] = system: endothelial cell proliferation; conditions: cited from earlier work
[2] = in vivo, cited from earlier work
type-1 enzyme (MetAP-1) = type-1 enzyme (MetAP-1) (Homo sapiens, UniProt P53582); conditions: cited from earlier work
MetAP-2 [3] = biological target: T1, MetAP-2 (Homo sapiens, UniProt P50579); conditions: cited from earlier work
Target sequence in this assay (P50579 whole entry, species assumed): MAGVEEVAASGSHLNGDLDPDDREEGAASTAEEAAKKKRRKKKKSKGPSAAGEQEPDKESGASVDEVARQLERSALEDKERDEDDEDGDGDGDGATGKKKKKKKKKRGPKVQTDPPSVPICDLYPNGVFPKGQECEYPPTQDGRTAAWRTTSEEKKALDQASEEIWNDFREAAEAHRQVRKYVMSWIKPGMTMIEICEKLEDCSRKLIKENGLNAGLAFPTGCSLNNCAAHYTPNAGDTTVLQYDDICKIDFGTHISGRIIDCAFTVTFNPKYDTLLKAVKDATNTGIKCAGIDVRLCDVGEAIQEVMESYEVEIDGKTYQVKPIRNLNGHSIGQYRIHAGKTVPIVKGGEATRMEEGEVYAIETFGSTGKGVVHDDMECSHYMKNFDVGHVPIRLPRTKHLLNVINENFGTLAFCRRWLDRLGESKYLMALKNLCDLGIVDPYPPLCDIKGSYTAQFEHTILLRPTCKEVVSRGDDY

[4] = biological target: T2, recombinant human MetAP-3 (Homo sapiens, UniProt Q6UB28); experiment: Methionine aminopeptidase activity assay (methionine release from tripeptide, coupled L-amino acid oxidase/Amplex Red); format: biochemical; conditions: for Cleaved / Vmax: tripeptide as substrate of recombinant human MetAP-3
T2 construct: The coding region of hMetAP-3 was also cloned into the EcoRI/HindIII sites of the pET43a vector and expressed as a fusion protein; NusA (N, cleaved yes); 6xHis (N, cleaved yes); made in house; host or cells: E. coli Tuner (DE3)plysS, pET43a
T2 sequence (Q6UB28 20-335): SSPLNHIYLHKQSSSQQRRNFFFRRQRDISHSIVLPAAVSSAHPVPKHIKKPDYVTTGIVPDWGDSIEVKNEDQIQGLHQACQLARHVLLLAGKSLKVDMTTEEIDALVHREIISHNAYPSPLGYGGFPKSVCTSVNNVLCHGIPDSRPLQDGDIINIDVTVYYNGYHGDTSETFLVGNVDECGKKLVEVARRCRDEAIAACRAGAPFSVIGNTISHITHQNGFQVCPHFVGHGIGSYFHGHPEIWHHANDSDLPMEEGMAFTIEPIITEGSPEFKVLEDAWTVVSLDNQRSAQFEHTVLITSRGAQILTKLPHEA
Experimental: (§1) Hydrogen peroxide, produced by the L-amino acid oxidase reaction, was measured by monitoring the formation of resorufin from Amplex Red in a reaction catalyzed by of horseradish peroxidase. […] The reaction was performed in a 96-well plate format at ambient temperature using the following assay buffer: 20 mM HEPES-Na pH 7.5, 100 mM NaCl, 0.1 mM CoCl2 containing 100 μM Amplex Red, 0.15 U/ml L-amino acid oxidase, 0.5 U/ml horseradish peroxidase.
(§2) The ability of fumagillin to inhibit each of the recombinant human MetAPs was determined by adding 0.6 nM-500 μM fumagillin at the start of the reaction. The IC50 values were determined under conditions in which enzyme concentration and reaction time were linear.

[5] = biological target: recombinant human MetAP-1 (Homo sapiens, UniProt P53582); experiment: as above
Experimental: as §1, §2

MetAP-2 [6] = biological target: T1, MetAP-2; experiment: as above
Experimental: as §1, §2
Target sequence in this assay (P50579 whole entry): as the sequence (P50579 whole entry, species assumed) above

Molecule	Inhibition of type-1 enzyme (in words) (type-1 enzyme (MetAP-1))	Binding and inhibition of MetAP-2 (in words) (MetAP-2 [3])	Cleaved [4]	Vmax [4] [Abs × 1000/min]	further results
CO[C@@H]1[C@H](OC(=O)NC(=O)CCl)CC[C@]2(CO2)[C@H]1[C@@]1(C)O[C@@H]1CC=C(C)C [TNP-470]	but not the type-1 enzyme	irreversibly bind and potently inhibit			Potency relative to fumagillin [1]: 50 fold; Oral availability (in words) ([2]; po): lack of oral availability; Toxicity (in words) [2]: dose-limiting neurotoxicity
GGG: synthesized tripeptide evaluated as substrate for MetAP-3			No	0.7	
CO[C@@H]1[C@H](OC(=O)/C=C/C=C/C=C/C=C/C(=O)O)CC[C@]2(CO2)[C@H]1[C@@]1(C)O[C@@H]1CC=C(C)C [Fumagillin, fumagillin]	but not the type-1 enzyme	irreversibly bind and potently inhibit			IC50 [5]: 33 µM; IC50 (MetAP-2 [6]): 0.005 µM; Inhibition of endothelial cell proliferation (in words) [1]: potent inhibitor of endothelial cell proliferation; Inhibition of MetAP-3 by fumagillin (in words) [4]: not inhibited by fumagillin; IC50 ([4]; read-out: Fumagillin IC50): > 500 µM
MGG: synthesized tripeptide evaluated as substrate for MetAP-3			cleaved and Yes	134	Activity with MGG relative to MAS as substrate [4]: twice as high
CO[C@@H]1C(=O)CC[C@]2(CO2)[C@@]1(O)[C@@]1(C)O[C@@H]1CC=C(C)C [ovalicin]	but not the type-1 enzyme				
MEG: synthesized tripeptide evaluated as substrate for MetAP-3			cannot cleave and No	1.1	
